Laboratory results as given in patent publication US20100292200A1, “Methods for Modulating Apoptosis in Platelets” (The Walter and Eliza Hall Institute of Medical Research, priority 2006, published 2010).
“Also recorded” adds a separate entry of the source.

Legend:
[1] = tested on: tumor cell lines derived from small cell lung cancers or lymphomas; settings: small cell lung cancer or lymphoma derived lines; Oltersdorf et al., 2005; cited from earlier work
[2] = tested on: cells from the bone marrow of C57BL/6 mice; assay: formation of hematopoietic progenitors in vitro (soft agar colony cultures); type: cell-based, mouse
Procedure: Cells (25,000) from the bone marrow of C57BL/6 mice were cultured in soft agar with G-CSF, IL-3 and EPO for 7 r d, stained and counted. Saline or ABT-737 was added on days 1, 3 and 5. […] G, granulocyte colony; GM, granulocyte/macrophage colony; M, macrophage colony; EO, eosinophil colony; Meg, megakaryocyte colony. Total colony counts are the means of two cultures; megakaryocyte colony counts represent the means±SD of four indepdendent cultures.
(§1) The hematocrit, platelet and white cell count, and differential were determined by using either manual or automated (Advia 120) counting techniques. In most experiments, with the exception of data shown in FIGS. 1A and 6E, the data was collected from male mice. Clonal cultures of 2.5×10^4 adult bone marrow cells or 5×10^4 spleen cells in 1 mL of 0.3% agar in DMEM supplemented with newborn calf serum (20%) were stimulated with a mixture of 100 ng/mL murine stem cell factor, 10 ng/mL murine IL-3, 4 units/mL human EPO and incubated for 7 days at 37° C. in a fully humidified atmosphere of 10% CO2 in air. Agar cultures were fixed, sequentially stained for acetylcholinesterase, Luxol fast blue and hematoxylin; the cellular composition of each colony determined at ×100-400 magnification. Megakaryocyte counts were performed by manual counting from sections of sternum and spleen after staining with hematoxylin/eosin. A minimum of 10 high-power fields (×200) were scored.

[3] = tested on: human platelet rich plasma; assay: Platelet aggregometry on human platelet rich plasma; type: cell-based
Procedure: Platelet aggregometry performed on human platelet rich plasma (250×10^9/L platelets) pre-incubated for 1 h with 1 μM ABT-737 (green line) or not (red) before stimulation with (A) collagen (4 μg/ml) or (B) ADP (10 μM).
Whole blood was collected in sodium citrate (3.2%) and platelet rich plasma obtained by centrifugation at 800 rpm for 12 min at room temperature. Platelet poor plasma was then obtained by centrifugation of remaining blood at 3,000 rpm for 15 min at room temperature. Platelet count was adjusted to 250×10^9/L using platelet poor plasma. Diluted platelet rich plasma was placed in an aggregometer cuvette warmed to 37° C. and stirred whilst light transmission through the plasma was measured in a 4 channel platelet aggregometer. After baseline measurements were obtained, ADP or Collagen (both from Edward Keller) was added to induce aggregation.

[4] = tested on: megakaryocytes; settings: mouse, in vivo
Procedure: as §1

[5] = ABT-737 1 μM added on days 1, 3 and 5, 25,000 bone marrow cells, 7 d, mean of two cultures
[6] = progenitor cell cultures in vitro

CN(C)CC[C@H](CSc1ccccc1)Nc1ccc(S(=O)(=O)NC(=O)c2ccc(N3CCN(Cc4ccccc4-c4ccc(Cl)cc4)CC3)cc2)cc1[N+](=O)[O-] [ABT-737]
efficacy against tumor cell lines [1]: single agent efficacy
Blast colonies [2, 5]: 16
Eo, eosinophil colony [2, 5]: 1
G, granulocyte colony [2, 5]: 14
GM, granulocyte/macrophage colony [2, 5]: 6
M, macrophage colony [2, 5]: 14
Meg, megakaryocyte colony ([2]; ABT-737 1 μM added on days 1, 3 and 5, 25,000 bone marrow cells, 7 d, means±SD of four independent cultures): 14 ± 6
effect on formation of other colonies [2, 6]: unaffected
effect on megakaryocyte colony formation [2, 6]: no effect; also recorded: minor effect
responses to other agonists (Epinephrine, Arachidonic Acid, Ristocetin) ([3]; 1 μM ABT-737 (data not shown)): did not alter responses
platelet activation / aggregation in response to collagen or ADP ([3]; pre-incubated 1 h with 1 μM ABT-737, collagen 4 μg/ml or ADP 10 μM): did not trigger platelet activation or adversely impact upon the ability of platelets to aggregate; also recorded: did not induce platelet aggregation or affect that with agonists
megakaryocytopoiesis in ABT-737 treated mice [4]: normal, or probably even elevated
